Consider 51 compounds from PubChem BioAssay AID1949 (Southern Research Institute, 2009).

For this assay, the system named is M. tuberculosis H37Rv growth inhibition. The experiment in a line: Confirmatory growth inhibition assay against Mycobacterium tuberculosis H37Rv, potency (AID 1949).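 Further: bacteria grown 7 days with compound before Alamar blue readout.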

Each structure is given as a SMILES string. ≈ marks a conversion by molar mass, not a printed value. Results filed as inconclusive are left out. Calls of active or inactive are those of the source. How the calls were made is not given here. A value given as a limit tells only on which side of the number the result lay.

For `Cc1ccc(C(=O)NC(=S)N(C)Cc2ccccc2)cc1`, the IC50 (commonly the midpoint of a concentration-inhibition curve) was 2.53 µg/mL (≈ 8.48 µM).
In the case of `Nc1ncnc2c1[nH]c(=S)n2CCOc1cccc2ccccc12` it was 10.9 µg/mL (≈ 32.5 µM).
Regarding `CC(C)(C)c1cc(Cl)ccc1OCCCCn1ccnc1`, the IC50 was 1.41 µg/mL (≈ 4.6 µM).
Turning to `Cc1ccc(OC(=O)c2ccc3nc(C)sc3c2)cc1`, the IC50 was > 50 µg/mL (inactive).
The figure for `COc1ccc(Cl)cc1CN1CCN(c2ncnc3scc(-c4ccccc4)c23)CC1` is 4.15 µg/mL (≈ 9.2 µM).
In the case of `C=CCn1c(Sc2ccc(C(F)(F)F)cc2[N+](=O)[O-])nnc1-c1ccccc1Cl` it was 0.19 µg/mL (≈ 0.431 µM); in that of `Cc1cnc(NC(=O)CSc2ccc(Cl)cc2)s1`, 1.67 µg/mL (≈ 5.59 µM).
In the case of `CCOc1ccc(Nc2nc(N)c(C(=O)C(C)(C)C)s2)cc1` it was 5.96 µg/mL (≈ 18.7 µM); in that of `O=C(NCc1cccc(C(F)(F)F)c1)Nc1cccc(Cl)c1`, 5.93 µg/mL (≈ 18 µM).
Take `CCOC(=O)COc1ccc2c(=O)c(-c3ccc(F)cc3)coc2c1`: the IC50 is 21.3 µg/mL (≈ 62.3 µM).
In the case of `O=c1c2ccccc2nc(/C=C/c2ccc([N+](=O)[O-])o2)n1-c1cccc(O)c1` it was 0.65 µg/mL (≈ 1.73 µM).
For `Cc1ccc(N2CC(C(=O)Nc3ncc([N+](=O)[O-])s3)CC2=O)cc1` (stereo unspecified), the IC50 was 28.3 µg/mL (≈ 81.6 µM).
For `CC(NCc1cccc(OCc2ccccc2)c1)C(O)c1ccccc1` (stereo unspecified), the IC50 was 5.53 µg/mL (≈ 15.9 µM).
Regarding `Cc1ccc(NC(=O)C(C)NS(=O)(=O)c2ccc(Cl)cc2)cc1Cl` (stereo unspecified), the IC50 is 2.85 µg/mL (≈ 7.36 µM).
In the case of `O=C(Nc1cccc([N+](=O)[O-])c1)Nc1ccc(Cl)c(C(F)(F)F)c1` it was 0.19 µg/mL (≈ 0.528 µM).
Consider `O=C(Nc1ccc(Cl)c(Cl)c1)c1ccc(Cl)cc1Cl`, for which the IC50 was 5.19 µg/mL (≈ 15.5 µM).
In the case of `COC(=O)c1ccc(NC(=O)CSc2ccc(F)cc2)cc1`, the IC50 was 4.02 µg/mL (≈ 12.6 µM).
Take `CCN1C(=O)c2cccc3c([N+](=O)[O-])ccc(c23)C1=O`: the IC50 is > 50 µg/mL (inactive).
In the case of `CCOC(=O)COc1ccc(S(=O)(=O)Nc2cccc(Cl)c2C)cc1` it was 3.03 µg/mL (≈ 7.89 µM); in that of `CCOC(=O)COc1cc2oc(=O)cc(CC)c2cc1Cl`, 1.43 µg/mL (≈ 4.6 µM); in that of `COC(=O)COc1ccc2c(=O)c(Oc3ccccc3)c(C(F)(F)F)oc2c1`, 6.6 µg/mL (≈ 16.7 µM).
In the case of `CC(C(=O)OCc1ccccc1)n1cnc2scc(-c3ccc(Br)cc3)c2c1=O` (stereo unspecified) it was 1.51 µg/mL (≈ 3.22 µM).
In the case of `Cc1cc2ncn(CCCCOc3ccccc3)c2cc1C` it was 4.6 µg/mL (≈ 15.6 µM); in that of `COc1ccc(S(=O)(=O)Nc2cc(Sc3ccccc3)c(O)c3ccccc23)cc1`, 5.29 µg/mL (≈ 12.1 µM); in that of `c1cc2[nH]onc2c2c3c(nc12)CCCC3`, 8.28 µg/mL (≈ 38.8 µM).
For `COc1ccccc1/C=C/c1nn2c(-c3ccc(C)cc3)nnc2s1`, the IC50 is 45.6 µg/mL (≈ 131 µM).
Consider `Cc1ccc2oc(=O)n(CCCOc3ccc(Cl)cc3)c2c1`, for which the IC50 is 2.98 µg/mL (≈ 9.38 µM).
The figure for `Cc1cc(OCCCN2CCCC(C)C2)cc(C(C)C)c1` (stereo unspecified) is 5.85 µg/mL (≈ 20.2 µM).
The figure for `O=C(CN(c1ccc(Cl)c(Cl)c1)S(=O)(=O)c1ccccc1)Nc1cccc([N+](=O)[O-])c1` is 1.47 µg/mL (≈ 3.06 µM); for `CCOc1ccc(NCCC(=O)c2ccc3c(c2)OCO3)cc1` it is 3.32 µg/mL (≈ 10.6 µM); for `COC(=O)c1c(C)cc(=O)n2c1[nH]c1ccccc12` it is 3.52 µg/mL (≈ 13.7 µM).
In the case of `C=CCn1c(O)c(C2=c3ccccc3=NC2=O)sc1=N` it was less than 0.1 µg/mL; in that of `O=C(NC(=S)Nc1ccccc1N1CCCC1)c1cccc2ccccc12`, 0.36 µg/mL (≈ 0.959 µM); in that of `Cc1ccc(Cl)cc1N1CCN(C(=O)C2CCN(C(=O)c3ccc(C(C)(C)C)cc3)CC2)CC1`, 3.38 µg/mL (≈ 7.01 µM).
`CC1CCC(C(=O)c2c(O)c3ccccc3oc2=O)CC1` (stereo unspecified): the IC50 was > 50 µg/mL (inactive).
In the case of `CCc1cc(C(=O)OC)c(NC(=S)NCc2ccc(Cl)c(Cl)c2)s1` it was 0.14 µg/mL (≈ 0.347 µM).
For `CNc1nc(N2CCc3ccccc32)ncc1F`, the IC50 was 0.91 µg/mL (≈ 3.73 µM).
The figure for `CCc1cccc(NC(=O)c2ccc3ccccc3n2)c1` is 11.4 µg/mL (≈ 41.1 µM).
For the compound `CCCCc1ccc(NC(=O)CSCc2ccc(OC)cc2)cc1`, the IC50 is 12.9 µg/mL (≈ 37.5 µM).
In the case of `O=C(Nc1cccc(Cl)c1)Nc1ccccc1OC(F)(F)C(F)F` it was 0.19 µg/mL (≈ 0.524 µM); in that of `Cc1cccc(Nc2cc(Cl)c3nonc3c2[N+](=O)[O-])c1C`, 1.28 µg/mL (≈ 4.02 µM).
In the case of `CCOC(=O)COc1ccc2c3c(c(=O)oc2c1C)CCC3` it was > 50 µg/mL (inactive); in that of `CC1CCc2sc3ncnc(NCCc4ccccc4)c3c2C1` (stereo unspecified), 1.85 µg/mL (≈ 5.72 µM); in that of `CC1=NN(c2nc(-c3ccc(Cl)cc3)cs2)C(=O)C1C` (stereo unspecified), 2.07 µg/mL (≈ 6.77 µM).
`Cc1cc(C)nc(/N=C(\N)Nc2ccccc2Sc2ccccc2)n1`: the IC50 is > 50 µg/mL (inactive).
`Cc1ccc(OCCCCNCCc2ccccc2)c(C)c1`: the IC50 was 9.13 µg/mL (≈ 30.7 µM).
For the compound `O=C(Nc1ccc(Br)c(C(F)(F)F)c1)c1ccccc1`, the IC50 is 3.26 µg/mL (≈ 9.47 µM).
As for `Cc1ccc2[nH]c3c(c2c1)CCCC3NCC(O)Cc1ccccc1` (stereo unspecified), the IC50 is 6.03 µg/mL (≈ 18 µM).
Regarding `Cc1cccc(OC(C)C(=O)Nc2ccc([N+](=O)[O-])cc2)c1C` (stereo unspecified), the concentration for half-maximal inhibition (IC50) is 3.13 µg/mL (≈ 9.96 µM).
In the case of `CC1CCN(CCNC(=S)Nc2ccc(F)cc2)CC1` it was 1.54 µg/mL (≈ 5.21 µM); in that of `CC1CCc2nc3sc4c(c3c(N)c2C1)CCCC4` (stereo unspecified), 1.06 µg/mL (≈ 3.89 µM).
